Reference: US12577238B2, “Compositions and methods for modulating inflammatory and degenerative disorder” (University of Southern California, priority 2018, dated 2026)
Entries after “also recorded” stand apart in the source; their conditions may differ.

B1: OSM: pro-inflammatory cytokine oncostatin M (protein, UniProt P13725 26-221, looked up)
Oncostatin-M: AAIGSCSKEYRVLLGQLQKQTDLMQDTSRLLDPYIRIQGLDVPKLREHCRERPGAFPSEETLRGLGRRGFLQTLNATLGCVLHRLADLEQRLPKAQDLERSGLNIEDLEKLQMARPNILGLRNNIYCMAQLLDNSDTAEPTKAGRGASQPPTPTPASDAFQRKLEGCRFLHGYHRFMHSVGRVFSKWGESPNRSRR

Columns and labels:
[1] = test system: adult pig articular chondrocytes; assay: Western blot of signaling proteins (pSTAT3, MYC, MAPK, AKT, NF-κB) in pig articular chondrocytes; type: cell-based; details: for levels of active STAT3 (pSTAT3) and MYC proteins: Western blot, analogs at 10 μM; for activation of the MAPK, AKT and NF-κB pathways: adult pig articular chondrocytes
Procedure: (A) Class 1 molecules (marked by red arrows) activate STAT3 and MYC signaling pathways wile Class 2 molecules (blue arrows) have no stimulatory effects on STAT3 and MYC signaling in chondrocytes as determined by western blot analysis. (B) Structures of the most prominent Class 1 and Class 2 molecules. […] All drugs were tested at 10 μM and assessed using Western Blot.
All drugs tested at 10 μM and assessed using Western Blot.
(§1) To begin to address the mechanism of action of RCGD 423, adult pig chondrocytes were incubated with the drug, IL-6 family cytokines or the pro-catabolic cytokines TNF-α and IL-1β and measured levels of various proteins downstream of these cytokines that are known to drive catabolic responses (FIG. 3).
(§2) Firstly, RCGD 423 was a hit from a library; this made the depth of the discovery surrounding the technology less comprehensive. Additionally, the physical properties of RCGD 423 (solubility, potency, functional groups) could be improved. Significant gains in these areas could potentially result in a first-in-class injectable for the treatment of post-traumatic OA. Moreover, the potential risks associated with promoting MYC stabilization and proliferation in gp130^+ cells as well as large increases in active STAT3 protein was of concern. […] These compounds were then screened in adult pig articular chondrocytes and cartilage explants, seeking compounds that could inhibit the catabolic effects of OSM but not drive increases in MYC and pSTAT3 protein levels. […] Together, these preliminary data identify CX-011 (B8) as a highly anti-inflammatory, anti-catabolic alternative to RCGD 423, with increased “drug-like” properties and reduced potential molecular liabilities.

[2] = test system: adult pig articular chondrocytes; assay: Proteins mediating pro-inflammatory signals with or without OSM; type: cell-based
Source text: as §2

[3] = test system: pig articular cartilage explants; assay: Matrix degradation assay, OSM-driven, pig articular cartilage explants; type: cell-based; details: driven by OSM
Procedure: FIG. 22A-C show matrix degradation assays.
72 hour exposure to the drug and OSM. […] Effect is concentration dependent and increases with increase in drug concentration.
as §2

gp130 [4] = biological target: T1, gp130 (Homo sapiens, UniProt P40189); assay: OSM-mediated activation of gp130 in adult human articular chondrocytes; type: cell-based; details: three independent donors
T1 construct: endogenous in cells; host or cells: adult human articular chondrocytes (three donors)
T1 sequence (P40189 23-918): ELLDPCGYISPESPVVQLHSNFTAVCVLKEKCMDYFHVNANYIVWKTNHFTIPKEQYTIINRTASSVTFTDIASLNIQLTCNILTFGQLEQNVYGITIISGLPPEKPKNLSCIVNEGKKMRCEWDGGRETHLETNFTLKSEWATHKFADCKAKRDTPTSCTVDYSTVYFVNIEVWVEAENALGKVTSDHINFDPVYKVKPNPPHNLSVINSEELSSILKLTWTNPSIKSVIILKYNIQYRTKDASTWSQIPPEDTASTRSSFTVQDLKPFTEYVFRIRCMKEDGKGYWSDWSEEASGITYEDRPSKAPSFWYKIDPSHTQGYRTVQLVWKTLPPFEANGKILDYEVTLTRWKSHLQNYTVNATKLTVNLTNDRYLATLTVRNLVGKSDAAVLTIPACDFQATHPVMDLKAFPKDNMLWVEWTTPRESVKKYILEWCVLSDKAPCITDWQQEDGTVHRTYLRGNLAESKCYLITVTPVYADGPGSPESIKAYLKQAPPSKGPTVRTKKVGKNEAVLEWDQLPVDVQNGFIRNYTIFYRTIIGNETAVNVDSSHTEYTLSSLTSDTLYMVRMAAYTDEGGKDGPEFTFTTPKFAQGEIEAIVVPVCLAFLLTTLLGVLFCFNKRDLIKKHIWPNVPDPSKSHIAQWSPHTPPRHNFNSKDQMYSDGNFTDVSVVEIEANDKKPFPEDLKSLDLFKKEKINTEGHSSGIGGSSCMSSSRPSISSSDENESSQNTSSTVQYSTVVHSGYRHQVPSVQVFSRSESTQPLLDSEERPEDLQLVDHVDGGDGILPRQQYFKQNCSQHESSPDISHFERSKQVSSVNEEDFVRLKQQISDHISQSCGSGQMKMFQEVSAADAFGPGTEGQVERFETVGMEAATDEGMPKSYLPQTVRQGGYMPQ
Source text: 423F is the positive control drug. Adult human articular chondrocytes from three independent donors were used to generate the results.
Adult human articular chondrocytes from three independent donors were used to generate the results.
Adult human articular chondrocytes from three independent donors were used.

gp130 [5] = biological target: T2, gp130 (Rattus norvegicus, UniProt P40190); assay: Injection into rat knees, pSTAT3 and MYC levels; type: in vivo; details: co-injection with RCGD 423 into rat knees
T2 construct: from tissue; host or cells: rat knee joint in vivo (Sprague-Dawley wild-type in the CFA model)
T2 sequence (P40190 23-918): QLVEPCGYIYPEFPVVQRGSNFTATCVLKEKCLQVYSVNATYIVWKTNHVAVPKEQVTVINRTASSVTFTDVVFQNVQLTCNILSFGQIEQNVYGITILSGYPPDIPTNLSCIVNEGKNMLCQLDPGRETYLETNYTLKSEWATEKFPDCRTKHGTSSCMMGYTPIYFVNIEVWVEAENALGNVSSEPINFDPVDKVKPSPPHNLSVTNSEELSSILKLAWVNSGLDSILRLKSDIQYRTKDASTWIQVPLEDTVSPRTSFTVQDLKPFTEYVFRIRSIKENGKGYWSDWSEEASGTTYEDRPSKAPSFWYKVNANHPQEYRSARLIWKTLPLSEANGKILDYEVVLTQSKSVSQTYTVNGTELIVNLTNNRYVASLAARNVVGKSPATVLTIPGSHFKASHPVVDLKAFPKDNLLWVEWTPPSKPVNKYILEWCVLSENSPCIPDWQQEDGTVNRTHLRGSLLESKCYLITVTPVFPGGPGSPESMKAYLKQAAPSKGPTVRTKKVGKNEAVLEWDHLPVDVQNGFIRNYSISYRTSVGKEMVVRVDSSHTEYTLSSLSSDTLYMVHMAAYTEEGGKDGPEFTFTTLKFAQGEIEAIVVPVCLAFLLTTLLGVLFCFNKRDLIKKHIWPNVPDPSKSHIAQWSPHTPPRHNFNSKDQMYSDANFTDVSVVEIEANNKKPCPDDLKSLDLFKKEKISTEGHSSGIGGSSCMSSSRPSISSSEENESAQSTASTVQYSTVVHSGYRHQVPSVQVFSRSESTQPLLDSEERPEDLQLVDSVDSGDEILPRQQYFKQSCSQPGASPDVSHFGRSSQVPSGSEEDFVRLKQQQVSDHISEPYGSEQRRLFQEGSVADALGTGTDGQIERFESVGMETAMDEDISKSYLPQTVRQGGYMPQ
Procedure: Based on this, it was hypothesized that RCGD 423 acts through gp130 by promoting stable homodimers in the absence of ligand. To confirm that RCGD 423 acts through gp130, the gp130 null cell line Ba/F3 cells was used. Ba/F3 cells were transfected with either full-length gp130 or a mutant gp130 lacking domain 2 (ΔD2), which contains the predicted binding site for RCGD 423 (FIG. 7). […] To verify the specificity of RCGD 423 in vivo, the compound was injected into rat knees in the presence of the small molecule gp130 inhibitor SC144 or a blocking antibody specific for domain 2 of gp130. […] The ability of RCGD 423 to act via inducing formation of gp130 homodimers was then examined by expressing tagged versions of gp130 in 293T cells. In this system, only homodimeric complexes can contain both tagged versions of gp130 (FIG. 9).

ADAMTS4/5 and MMP13 = assay: qPCR for proteolytic enzymes in adult pig chondrocytes; type: cell-based
Procedure: as §1

MMP13 and ADAMTS4 = assay: OSM-induced MMP13 and ADAMTS4 levels; type: cell-based

Row | Molecule | OSM-mediated activation of gp130 (gp130 [4]) | levels of active STAT3 (pSTAT3) and MYC proteins [1] | breakdown of collagen and aggrecan (aggrecan-neo, collagen-neo epitopes) [3] | further results
1 | Cc1ccc(-c2csc(NC(=O)c3ccno3)n2)cc1 [B8] | inhibit OSM-mediated activation of gp130 | – | – | levels of active STAT3 (pSTAT3) and MYC proteins ([1]; listed as CX-011): do not affect levels of pSTAT3 or MYC protein; levels of active STAT3 (pSTAT3) and MYC proteins ([1]; listed as CX-011 (B8)): did not increase levels of pSTAT3 and MYC; increases in proteins mediating pro-inflammatory signals ([2]; in the presence of OSM): strongly inhibits increases in these proteins in the presence of OSM; endogenous levels of proteins mediating pro-inflammatory signals ([2]; without OSM): little effect; breakdown of collagen and aggrecan (aggrecan-neo, collagen-neo epitopes) ([3]; listed as CX-011): prevents the breakdown of collagen and aggrecan; increase in catalytic enzymes / induction of proteolytic gene expression ([3]; listed as CX-011): prevents; breakdown of collagen and aggrecan (aggrecan-neo, collagen-neo epitopes) ([3]; listed as CX-011 (B8)): almost completely blocked the generation of aggrecan and collagen neoepitopes; increase in catalytic enzymes / induction of proteolytic gene expression ([3]; listed as CX-011 (B8)): reduced the induction of proteolytic gene expression
2 | Cc1ccc(-c2csc(NC(=O)c3cnco3)n2)cc1 [B803] | inhibit OSM-mediated activation of gp130; also recorded: inhibit OSM-mediate d activation of gp130 | – | – | –
3 | Cc1ccc(-c2cccc(NC(=O)c3ccno3)n2)cc1 [B810] | – | pSTAT3 and MYC activating | can also strongly prevent the breakdown of collagent and aggrecan | –
4 | Cc1ccccc1-c1csc(NC(=O)c2ccno2)n1 [B815] | inhibit OSM-mediated activation of gp130; also recorded: inhibit OSM-mediate d activation of gp130 | – | – | –
5 | O=C(Nc1nc(C2CC2)cs1)c1ccno1 [B826] | strongly inhibits OSM-mediated activation of gp130 | – | can still strongly prevent the breakdown of collagen and aggrecan | –
6 | Cc1ccc(-c2cccc(NC(=O)c3ccccn3)n2)cc1 [B839] | – | – | strongly prevent the breakdown of collagen and aggrecan | –
7 | Cc1ccc(-c2csc(NC(=O)c3oncc3C)n2)cc1 [B840] | – | pSTAT3 and MYC activating | can also strongly prevent the breakdown of collagent and aggrecan | –
8 | Cc1ccc(-c2nc(NC(=O)c3ccccn3)cs2)cc1 [B843] | – | – | can still strongly prevent the breakdown of collagen and aggrecan | –
9 | Cc1ccccc1-c1cccc(NC(=O)c2ccno2)n1 [B849] | – | – | can still strongly prevent the breakdown of collagen and aggrecan | –
10 | O=C(NNc1nc2cc(F)ccc2n2cccc12)c1cnccn1 [SC144] | – | – | – | blockade of signaling downstream of RCGD 423 (gp130 [5]): completely inhibited signaling downstream of RCGD 423; also recorded: could be blocked by co-injection
11 | IL-6: IL-6 family cytokine | – | increased levels of active STAT3 and MYC proteins | – | activation of the MAPK, AKT and NF-κB pathways [1]: activated the MAPK, AKT and NF-κB pathways; expression of proteolytic enzymes ADAMTS4/5 and MMP13 (ADAMTS4/5 and MMP13): significant increases in the expression of these genes
12 | LIF: leukemia inhibitory factor, IL-6 family cytokine | – | increased levels of active STAT3 and MYC proteins | – | activation of the MAPK, AKT and NF-κB pathways [1]: activated the MAPK, AKT and NF-κB pathways; expression of proteolytic enzymes ADAMTS4/5 and MMP13 (ADAMTS4/5 and MMP13): significant increases in the expression of these genes
13 | B1 | – | – | – | levels of MMP13 and ADAMTS4 (degradation of cartilage matrix proteins) (MMP13 and ADAMTS4): upregulates levels of MMP13 and ADAMTS proteases
